By IC50 is commonly meant the concentration at which inhibition is half-maximal. As usually defined, the CC50 is the concentration giving 50% cytotoxicity.

Some results are limits rather than exact numbers.

The target in one data set is Tdp1 (Homo sapiens, UniProt Q9NUW8). Kind of data set: Real-time detection of Tdp1 activity (fluorophore-quencher oligonucleotide biosensor). Type of data set: biochemical. As to conditions: 1.5 nM purified Tdp1, 50 nM biosensor, 26 °C, three independent experiments; read-out: IC50 (inhibition of Tdp-1). An excerpt: Previously, we designed a real-time oligonucleotide biosensor based on the capability of Tdp1 to remove fluorophore quenchers from the 3′ end of DNA [27]. The single-stranded substrate was a 16-mer oligonucleotide containing both a 5′-FAM fluorophore donor and a quenching 3′-BHQ moiety. When the quencher is removed by Tdp1, FAM fluorescence flares up and can be detected by a fluorimeter. Fluorescence intensity diminishes in the presence of an inhibitor; curves of the obtained Tdp1 activity versus inhibitor concentration can be used to calculate IC50 values. We also investigated some structurally related compounds obtained by previously developed methods; these compounds feature a modification either in a carbohydrate or heterocyclic moiety (Table 1).
Chain of Tdp1 (Q9NUW8 whole entry): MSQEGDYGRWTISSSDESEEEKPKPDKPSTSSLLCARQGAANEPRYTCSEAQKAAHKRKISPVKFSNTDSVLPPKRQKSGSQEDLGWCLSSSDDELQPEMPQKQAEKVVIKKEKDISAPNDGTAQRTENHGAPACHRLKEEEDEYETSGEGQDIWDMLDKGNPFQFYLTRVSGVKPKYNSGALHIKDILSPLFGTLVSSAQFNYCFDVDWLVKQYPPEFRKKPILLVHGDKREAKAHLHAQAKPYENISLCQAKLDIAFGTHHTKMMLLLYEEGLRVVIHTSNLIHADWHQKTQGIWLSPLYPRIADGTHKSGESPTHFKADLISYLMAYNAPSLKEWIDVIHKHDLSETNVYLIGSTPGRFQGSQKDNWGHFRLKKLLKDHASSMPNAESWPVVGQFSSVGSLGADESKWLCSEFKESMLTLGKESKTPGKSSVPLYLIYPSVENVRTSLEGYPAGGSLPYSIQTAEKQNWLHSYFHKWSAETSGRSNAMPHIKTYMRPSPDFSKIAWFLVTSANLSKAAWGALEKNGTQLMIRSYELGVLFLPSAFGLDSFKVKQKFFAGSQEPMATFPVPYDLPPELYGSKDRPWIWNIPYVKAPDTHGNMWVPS
This procedure was reported in our previous work. The approach consists of fluorescence intensity measurement in a reaction of quencher removal from a fluorophore quencher–coupled DNA oligonucleotide catalyzed by Tdp1 in the presence of an inhibitor (the control samples contained 1% of DMSO). The reaction mixtures (200 μL) contained Tdp1 buffer (50 mM Tris-HCl pH 8.0, 50 mM NaCl, and 7 mM β-mercaptoethanol), 50 nM biosensor, an inhibitor being tested, and purified Tdp1 (1.5 nM). The biosensor was a single-stranded oligonucleotide (5′-[FAM] AAC GTC AGGGTC TTC C [BHQ]-3′) containing a fluorophore at the 5′ end (5,6-FAM) and Black Hole Quencher 1 (BHQ) at the 3′ end and was synthesized in the Laboratory of Biomedical Chemistry at the Institute of Chemical Biology and Fundamental Medicine (Novosibirsk, Russia).
The reactions were incubated at a constant temperature of 26 °C on a POLARstar OPTIMA fluorimeter (BMG LABTECH, GmbH, Ortenberg, Germany) to measure fluorescence every 55 s (ex. 485/em. 520 nm) during the linear phase (here, data from minute 0 to minute 8). The values of IC50 were determined using a six-point concentration response curve in three independent experiments and were calculated using MARS Data Analysis 2.0 (BMG LABTECH).

Data set [1] relates to HeLa cells. The data set is described as follows: Cytotoxicity in combination with topotecan, EZ4U assay. In kind it is cell-based. As to conditions: compound 1, 5, 20, 100 μM with 2 μM topotecan, Figure 2. The protocol:
To study the influence of the inhibitors on the cytotoxic effect of topotecan, the latter from the manufacturer ACTAVIS GROUP PTC ehf. was used. To select a nontoxic but effective concentration of the nucleoside compounds, we investigated their cytotoxicity in the presence of 2 μM topotecan (concentration causing the death of half the HeLa cells). Three independent cytotoxicity assays were performed with each inhibitor in combination with topotecan. For the cells treated with a nucleoside derivative alone, values in the control wells treated with 1% DMSO were set to 100% viability. For the cells treated with a combination of the drugs, the viability of cells treated only with topotecan was set to 100%.
(§1) Intrinsic toxicity of the compounds to human cell line HeLa (cervical cancer) was examined by means of the EZ4U Cell Proliferation and Cytotoxicity Assay (Biomedica, Wien, Austria), according to the manufacturer’s protocols. The cells were grown in Iscove’s modified Dulbecco’s medium (IMDM) with 40 μg/mL gentamicin, 50 IU/mL penicillin, 50 μg/mL streptomycin (MP Biomedicals), and 10% of fetal bovine serum (Biolot) in a 5% CO2 atmosphere. After formation of a 30–50%-confluent monolayer, one of the tested compounds was added to the medium (the volume of the added reagents was 1/100 of the total volume of the culture medium, and the amount of DMSO was 1% of the final volume), and the cell culture was monitored for 3 days. Control cells were grown in the presence of 1% DMSO. To assess the influence of the inhibitors on the cytotoxic effect of topotecan, the latter from the manufacturer ACTAVIS GROUP PTC ehf. (Bucharest, Romania) was used. First of all, 50% cytotoxic concentrations of topotecan and of each inhibitor were determined to attain a defined single-agent effect. Second, three independent tests were performed with each inhibitor in combination with topotecan.

Data set [2] can be described thus: Intrinsic cytotoxicity, EZ4U Cell Proliferation and Cytotoxicity Assay. Type of data set: cell-based, human. As to conditions: human, HeLa cells (cervical cancer), 3 days, EZ4U assay. The method, then:
(§2) First, we assessed the toxicity of the compounds to HeLa cells (cervical cancer cells). Analysis of the intrinsic cytotoxicity of the compounds was examined in the EZ4U Cell Proliferation and Cytotoxicity Assay (Biomedica, Austria). The tested compounds were added to the medium (the volume of added reagents was 1/100 of the total volume of the culture medium, and the amount of DMSO (dimethyl sulfoxide) was 1% of the final volume), and the cell culture was monitored for 3 days. Control cells were grown in the presence of 1% DMSO. Intrinsic cytotoxicity of the compounds was either absent or negligible at concentrations up to 100 μM (>80% live cells) with the exception of compounds 2b, 2c, and 7, in the presence of which, at a concentration of 100 μM, 30–45% of the cells died (Table 1 and Figure 1).
as §1

For data set [3], the system named is HeLa cells. Described as above. In kind it is cell-based, human. The note with it: compound at 100 μM, 3 days. The method, then:
as §2, §1

For `O=C(OC[C@H]1O[C@@H](n2cc(Br)c(=O)[nH]c2=O)[C@H](OC(=O)c2ccccc2)[C@@H]1OC(=O)c1ccccc1)c1ccccc1` [Compound 2c, 2′,3′,5′-Tri-O-benzoyl-5-bromouridine], the IC50 on Tdp1 turned out to be 1500 ± 900 nM. In the data set with HeLa cells [1], the “change of cytotoxicity of the compound in the presence of topotecan (synergy)” value is on record as “Inactive”. Moreover, the CC50 at 3 days in data set [2] was greater than 100000 nM. The cells died in the data set on HeLa cells [3] was 30–45%.

The values are drawn from PMC7465190, “Inhibition of Tyrosyl-DNA Phosphodiesterase 1 by Lipophilic Pyrimidine Nucleosides” (Molecules, 2020).
